≈ marks a conversion by molar mass, not a printed value.
Tested on: human liver cancer cell lines Hep3B
Experiment: SRB growth inhibition of liver cancer cells
Format: cell-based
Conditions: Homo sapiens, Hep3B, 48 h, derivative dissolved in DMSO; 48 hours; SRB; read-out: IC50 of Hep3B in DMSO
Protocol: (§1) After letting to stand for 10 minutes at room temperature, the supernatant of each well was removed, and each well was washed with 200 μL H2O once. […] Each of the plates was then placed in the laminar flow cabinet for 1 hour for air dry. 50 μL 0.4% sulforhodamine B (SRB) dye was added into each well of the 96-well plate. […] Each of the plates was then placed in the laminar flow cabinet for 40 minutes to 1 hour for air dry. 1×Tris-Base solution with pH 7.0 to 7.4 was added to each well of the 96-well plate to dissolve the protein complex formed in the bottom of each well, followed by tapping the 96-well plate, allowing the complex in each well to be dissolved uniformly. Absorption of each well under 515 nm was read. […] Each of the experimental group was performed in triplet.

Compound	IC50 [µM]
Cc1ccc(S(=O)(=O)NCCF)cc1 [PTSA049]	> 174
Cc1ccc(S(=O)(=O)N2CC(CN)C2)cc1.Cl [PTSA068]	1250
Cc1ccc(S(=O)(=O)N2CC(CO)C2)cc1 [PTSA069]	3620
Cc1ccc(S(=O)(=O)N2CC(C(=O)NN)C2)cc1 [PTSA071]	1020
CON=C1CN(S(=O)(=O)c2ccc(C)cc2)C1 [PTSA072]	> 1120
Cc1ccc(S(=O)(=O)N2CC(N)C2)cc1.Cl [PTSA074]	> 1800

Same assay, conditions: Homo sapiens, Hep3B, 48 h, derivative dissolved in water; 48 hours; SRB; read-out: IC50 of Hep3B in water

Compound	IC50 [µM]
CC(=O)NS(=O)(=O)c1ccc(C)cc1 [PTSA002]	> 6030
Cc1ccc(S(=O)(=O)N2CC(CN)C2)cc1.Cl [PTSA068]	1300
Cc1ccc(S(=O)(=O)N2CC(N)C2)cc1.Cl [PTSA074]	2130

Same assay, conditions: derivative dissolved in DMSO; 48 hours; SRB; read-out: IC50 of Hep3B in DMSO

Compound	IC50 [µM]
CC(=O)NS(=O)(=O)c1ccc(C)cc1 [PTSA002]	> 270
Cc1ccc(S(N)(=O)=O)cc1 [p-TSA, Toluene sulfonamide, reference compound]	3730 ± 274

Tested on: not listed separately
Experiment: second dissolution test in DMSO or water
Format: physicochemical
Conditions: 100 mg powder; DMSO or water
Protocol: A second dissolution test was performed for the undissolved p-TSA derivatives. Each of 100 mg p-TSA derivatives powder was placed in each of the scintillation vial, followed by adding 500 μL DMSO or 500 μL water and shaking for 30 seconds for dissolution observation.

Compound	dissolution in the second dissolution test
CC(=O)NS(=O)(=O)c1ccc(C)cc1 [PTSA002]	dissolved in both of
Cc1ccc(S(=O)(=O)NCCF)cc1 [PTSA049]	dissolved in both of
Cc1ccc(S(=O)(=O)N2CC(=NNC(=O)C3CN(S(=O)(=O)c4ccc(C)cc4)C3)C2)cc1 [PTSA073]	dissolved in both of

Same assay, conditions: second dissolution test; 0.1 g powder; DMSO

Compound	Total volume of DMSO for dissolving the p-TSA derivatives
CC(=O)NS(=O)(=O)c1ccc(C)cc1 [PTSA002]	8 mL
Cc1ccc(S(=O)(=O)N2CCC(O)CC2)cc1 [PTSA032]	insoluble in 20 ml mL
Cc1ccc(S(=O)(=O)NCCF)cc1 [PTSA049]	9.5 mL
Cc1ccc(S(=O)(=O)N2CC(=NNC(=O)C3CN(S(=O)(=O)c4ccc(C)cc4)C3)C2)cc1 [PTSA073]	4.04 mL

Same assay, conditions: second dissolution test; 0.1 g powder; DMSO; listed as PTSA0032

Compound	Total volume of DMSO for dissolving the p-TSA derivatives [mL]
Cc1ccc(S(=O)(=O)N2CCC(O)CC2)cc1 [PTSA032]	> 20

Same assay, conditions: second dissolution test; 0.1 g powder; water

Compound	Total volume of water for dissolving the p-TSA derivatives
CC(=O)NS(=O)(=O)c1ccc(C)cc1 [PTSA002]	5.25 mL
Cc1ccc(S(=O)(=O)N2CCC(O)CC2)cc1 [PTSA032]	insoluble in 20 mL
Cc1ccc(S(=O)(=O)NCCF)cc1 [PTSA049]	insoluble in 20 mL
Cc1ccc(S(=O)(=O)N2CC(=NNC(=O)C3CN(S(=O)(=O)c4ccc(C)cc4)C3)C2)cc1 [PTSA073]	insoluble in 20 mL

Same assay, conditions: second dissolution test; 0.1 g powder; water; listed as PTSA0032

Compound	Total volume of water for dissolving the p-TSA derivatives [mL]
Cc1ccc(S(=O)(=O)N2CCC(O)CC2)cc1 [PTSA032]	> 20

Tested on: not listed separately
Experiment: first dissolution test in DMSO or water
Conditions: DMSO
Protocol: Each of the powder of p-TSA derivatives was duplicated, placed in each 15 mL centrifuge tube, followed by adding 200 μL DMSO or 200 μL water and shaking for 10 to 20 seconds for dissolution observation. If the powder was not dissolved, additional DMSO or water was added, and then the mixture was shaken. The tube was left to stand for 10 minutes for observation if the powder was still not dissolved after adding 1 mL DMSO or 1 mL water. If the powder was still not dissolved after adding 5 mL DMSO or 5 mL water, additional 1 mL DMSO or 1 mL water was added, and then the mixture was shaken for 30 seconds. If the powder was still not dissolved after adding 10 mL DMSO or 10 mL water, the tube was left to stand for 12 to 16 hours and observed on the next day. DMSO or water was added into the tube having the undissolved p-TSA derivatives up to 15 mL, followed by shaking for 30 minutes for observation.

Compound	Solubility in DMSO [mg/mL]
Cc1ccc(S(N)(=O)=O)cc1 [p-TSA, Toluene sulfonamide, reference compound]	785.95 (≈ 4590 mM)

Same assay, conditions: DMSO or water

Compound	dissolution in the first dissolution test
CC(=O)NS(=O)(=O)c1ccc(C)cc1 [PTSA002]	not dissolved in DMSO or water
Cc1ccc(S(=O)(=O)NCCF)cc1 [PTSA049]	not dissolved in DMSO or water
Cc1ccc(S(=O)(=O)N2CC(=NNC(=O)C3CN(S(=O)(=O)c4ccc(C)cc4)C3)C2)cc1 [PTSA073]	not dissolved in DMSO or water

Same assay, conditions: first dissolution test; amount for a 3M solution in 0.5 mL; DMSO, up to 15000 μL

Compound	Total volume of DMSO for dissolving the p-TSA derivatives
CC(=O)NS(=O)(=O)c1ccc(C)cc1 [PTSA002]	insoluble in 15000 μL
Cc1ccc(S(=O)(=O)N2CCC(O)CC2)cc1 [PTSA032]	insoluble in 15000 μL
Cc1ccc(S(=O)(=O)NCCF)cc1 [PTSA049]	insoluble in 15000 μL
Cc1ccc(S(=O)(=O)N2CC(CN)C2)cc1.Cl [PTSA068]	4000 µL
Cc1ccc(S(=O)(=O)N2CC(CO)C2)cc1 [PTSA069]	880 µL
Cc1ccc(S(=O)(=O)N2CC(C(=O)NN)C2)cc1 [PTSA071]	1500 µL
CON=C1CN(S(=O)(=O)c2ccc(C)cc2)C1 [PTSA072]	4500 µL
Cc1ccc(S(=O)(=O)N2CC(=NNC(=O)C3CN(S(=O)(=O)c4ccc(C)cc4)C3)C2)cc1 [PTSA073]	insoluble in 15000 μL
Cc1ccc(S(=O)(=O)N2CC(N)C2)cc1.Cl [PTSA074]	2500 µL

Same assay, conditions: first dissolution test; amount for a 3M solution in 0.5 mL; water, up to 15000 μL

Compound	Total volume of water for dissolving the p-TSA derivatives
CC(=O)NS(=O)(=O)c1ccc(C)cc1 [PTSA002]	insoluble in 15000 μL
Cc1ccc(S(=O)(=O)N2CCC(O)CC2)cc1 [PTSA032]	insoluble in 15000 μL
Cc1ccc(S(=O)(=O)NCCF)cc1 [PTSA049]	insoluble in 15000 μL
Cc1ccc(S(=O)(=O)N2CC(CN)C2)cc1.Cl [PTSA068]	4500 µL
Cc1ccc(S(=O)(=O)N2CC(CO)C2)cc1 [PTSA069]	insoluble in 15000 μL
Cc1ccc(S(=O)(=O)N2CC(C(=O)NN)C2)cc1 [PTSA071]	insoluble in 15000 μL
CON=C1CN(S(=O)(=O)c2ccc(C)cc2)C1 [PTSA072]	insoluble in 15000 μL
Cc1ccc(S(=O)(=O)N2CC(=NNC(=O)C3CN(S(=O)(=O)c4ccc(C)cc4)C3)C2)cc1 [PTSA073]	insoluble in 15000 μL
Cc1ccc(S(=O)(=O)N2CC(N)C2)cc1.Cl [PTSA074]	10000 µL

Same assay, conditions: overall result of first and second dissolution tests; category is the column head of Table 3

Compound	Dissolution of p-TSA derivatives (in DMSO and/or water)
Cc1ccc(S(=O)(=O)N2CCC(O)CC2)cc1 [PTSA032]	not dissolved in neither DMSO nor water

Same assay, conditions: water

Compound	Solubility in water [mg/mL]
Cc1ccc(S(N)(=O)=O)cc1 [p-TSA, Toluene sulfonamide, reference compound]	<50

Tested on: human non-small-cell lung cancer cell lines H460
Experiment: SRB growth inhibition of lung cancer cells
Format: cell-based
Conditions: Homo sapiens, NCI-H460, 48 h, derivative dissolved in DMSO; 48 hours; SRB; read-out: IC50 of H460 in DMSO
Protocol: as §1

Compound	IC50 [µM]
Cc1ccc(S(=O)(=O)NCCF)cc1 [PTSA049]	> 174
Cc1ccc(S(=O)(=O)N2CC(CN)C2)cc1.Cl [PTSA068]	1270
Cc1ccc(S(=O)(=O)N2CC(CO)C2)cc1 [PTSA069]	2580
Cc1ccc(S(=O)(=O)N2CC(C(=O)NN)C2)cc1 [PTSA071]	1040
CON=C1CN(S(=O)(=O)c2ccc(C)cc2)C1 [PTSA072]	> 1120
Cc1ccc(S(=O)(=O)N2CC(N)C2)cc1.Cl [PTSA074]	> 1800

Same assay, conditions: Homo sapiens, NCI-H460, 48 h, derivative dissolved in water; 48 hours; SRB; read-out: IC50 of H460 in water

Compound	IC50 [µM]
CC(=O)NS(=O)(=O)c1ccc(C)cc1 [PTSA002]	> 6030
Cc1ccc(S(=O)(=O)N2CC(CN)C2)cc1.Cl [PTSA068]	1390
Cc1ccc(S(=O)(=O)N2CC(N)C2)cc1.Cl [PTSA074]	2220

Same assay, conditions: derivative dissolved in DMSO; 48 hours; SRB; read-out: IC50 of H460 in DMSO

Compound	IC50 [µM]
CC(=O)NS(=O)(=O)c1ccc(C)cc1 [PTSA002]	> 270
Cc1ccc(S(N)(=O)=O)cc1 [p-TSA, Toluene sulfonamide, reference compound]	3720 ± 146

Source: patent US10485773B2, “Benzenesulfonamide derivatives and method for treating cancer” (GONGWIN BIOPHARM HOLDINGS CO., LTD., priority 2016, dated 2019)
